Measured values from patent EP0117429A1, “Phosphorous containing compounds as inhibitors of enkephalinases” (SCHERING CORPORATION, priority 1983, dated 1984).
Where a name gives a salt, the structure may show the parent alone.

Legend:
enkephalinase A = target: T1, enkephalinase A (Rattus norvegicus, UniProt P07861); assay: Enkephalinase A inhibition, radiometric assay with 3H-Met5-ENK substrate and TLC separation; type: biochemical, Sprague-Dawley rats; conditions: enkephalinase A fraction from rat brain membranes; substrate 3H-Met5-ENK 40 nM; 90 minutes at 37°C; pH 7.4
T1 construct: from tissue; host or cells: rat brain (minus cerebellum), Triton X-100 solubilised membranes, DEAE Sephacel fraction
T1 sequence (P07861 1-750): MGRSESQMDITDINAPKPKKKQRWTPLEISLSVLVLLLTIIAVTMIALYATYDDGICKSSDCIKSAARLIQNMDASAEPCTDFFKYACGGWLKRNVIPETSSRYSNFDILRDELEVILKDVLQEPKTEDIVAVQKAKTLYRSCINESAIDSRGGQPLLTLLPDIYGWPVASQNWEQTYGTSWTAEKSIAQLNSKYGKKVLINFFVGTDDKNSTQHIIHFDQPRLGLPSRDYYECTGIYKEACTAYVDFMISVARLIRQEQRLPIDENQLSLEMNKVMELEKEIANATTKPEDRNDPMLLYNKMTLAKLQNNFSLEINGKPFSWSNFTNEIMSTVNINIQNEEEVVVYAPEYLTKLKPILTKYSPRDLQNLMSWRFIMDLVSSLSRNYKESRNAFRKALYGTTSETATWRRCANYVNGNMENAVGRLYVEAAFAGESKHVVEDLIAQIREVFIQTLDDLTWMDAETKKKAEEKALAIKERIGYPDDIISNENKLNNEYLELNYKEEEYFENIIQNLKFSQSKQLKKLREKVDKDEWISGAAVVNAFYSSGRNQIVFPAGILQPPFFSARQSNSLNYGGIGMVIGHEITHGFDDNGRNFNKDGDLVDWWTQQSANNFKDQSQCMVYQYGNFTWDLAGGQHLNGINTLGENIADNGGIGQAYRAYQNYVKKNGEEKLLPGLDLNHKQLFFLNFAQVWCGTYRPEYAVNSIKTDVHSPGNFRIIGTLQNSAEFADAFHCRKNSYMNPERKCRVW
Procedure: Enzyme activity was separated by taking the brain tissue (minus cerebellum) from Sprague-Dawley rats and homogenizing it in 30 volumes of 50 mM Tris buffer, pH 7.4, using a Brinkmann Polytron. The resulting homogenate is centrifuged at 50,000 x g for 15 minutes. The pellet, constituting the membrane bound enzyme material, was washed by resuspending it in Tris and re- centrifuging it 4 times.
Following washing, solubilization of the membrane pellet was achieved by incubating it for 45 minutes at 37 °C in the presence of 15 volumes (based on initial brain weight) of 50 mM Tris-l% Triton X-100 buffer, pH 7.4. After centrifugation at 100,000 x g for 60 minutes to remove non-solubilized material, the Triton soluble supernatant was layered on a 1.5 x 30 cm DEAE Sephacel column previously equilibrated with.50 mM Tris-0.1% Triton, pH 7.4. Material was eluted from the column using a 1 liter linear NaCl gradient running from 0.0 to 0.4 M. Effluent was collected in 7 ml fractions, each of which was assayed for enkephalin degrading activity.
Enkephalin degrading activity was monitored using a radiometric assay. The substrate was ^3H-Met5-ENK (50.1 Ci/mmol, New England Nuclear) diluted in 0.05 M Tris buffer, pH 7.4, such that the final reaction mixture concentration was 40 nM. Total reaction mixture volume including enzyme and substrate was 250 µl. Incubation was carried out for 90 minutes at 37°C. To stop the reaction, tubes were transferred to a boiling water bath for 15 minutes.
Assay products were separated form one another using thin layer chromatography. […] Total running time was approximately 17 hours. TLC tanks are gassed with nitrogen prior to starting the run. Following the run, markers are visualized with ninhydrin spray. These spots, along with remaining plate regions, are cut from the plate and the radioactivity corresponding to each monitored using liquid scintillation counting. IC50's are determined using linear regression techniques.

Male CF1 mice = assay: Potentiation of the analgesic effects of DAEAM, mouse tailflick test; type: in vivo; conditions: dose at which half the test animals displayed analgesia, DAEAM icv, tailflick latency 30 minutes after DAEAM, cut-off 10 seconds
Procedure: The following test procedure was utilized to assess the noted compounds' potentiation of the analgesic effects of (D-Ala^2-Met^5)-enkephalinamide (DAEAM).
Male CF1 mice (19-23 g) from Charles River Breeding Labs, Mass., were used (N=10/dose or dose combination). […] Tailflick latencies were re-determined 30 minutes later, as this has previously been determined to be the time of peak analgesia for DAEAM, and a cut-off of 10 seconds is employed.

IC50 (enkephalinase A) [µM]	Compound	Oral ED50, in mice (Male CF1 mice) [mg/kg]
0.0013	O=C(O)CCNC(=O)C(Cc1ccc(-c2ccccc2)cc1)CP(=O)(O)O (racemic) [R,S, -C6H5, -CONH-, -(CH2)2-, -OH, N-[(R,S)-3-(1,1'-Biphenyl-4-yl)-1-oxo-2-(phosphonomethyl)-propyl]-β-alanine]	
2.2	CCOC(=O)CCNC(=O)C(Cc1ccc(C(F)(F)F)cc1)CP(=O)(O)O (racemic) [R,S, -CF3, -CONH-, -(CH2)2-, -OC2H5]	
0.06	O=C(O)CCNC(=O)C(Cc1ccc(C(F)(F)F)cc1)CP(=O)(O)O (racemic) [R,S, -CF3, -CONH-, -(CH2)2-, -OH, N-[1-Oxo-2-phosphonomethyl-3-(4-trifluoromethyl)phenylpropyl]-β-alanine]	
0.6	O=C(O)CCNC(=O)[C@@H](Cc1ccccc1)CP(=O)(O)O [R, -H, -CONH-, -(CH2)2-, -OH, N-[(R)-1-oxo-3-phenyl-2-)phosphonomethyl)propyl] -(β-alanine calcium salt]	
0.1	CC(OC(=O)NC(Cc1ccccc1)CP(=O)(O)O)C(=O)O [R,S, -H, -NHCOO-, -C^**H(CH3)-, -OH, 2-[2-phenyl-l-(phosphonomethyl)ethyl]aminocarbonyloxy-propanoic acid]	
0.011	O=C(O)CCNC(=O)[C@H](Cc1ccc(Cl)cc1)CP(=O)(O)O [S, -Cl, -CONH-, -(CH2)2-, -OH, N-[3-(a-chloro)phenyl-1-oxo-2-(phosphonomethyl)propyl]-B-alanine]	25
0.21	O=C(CCNC(=O)[C@H](Cc1ccccc1)CP(=O)(O)O)OCCOc1ccccc1 [S, -H, -CONH-, -(CH2)2-, -O(CH2)2OC6H5, N-[(S)-1-Oxo-3-phenyl-2-(phosphonomethyl)propyl)-β-alanine 2-phenoxyethyl ester]	
0.06	CCOC(=O)CCNC(=O)[C@H](Cc1ccccc1)CP(=O)(O)O [S, -H, -CONH-, -(CH2)2-, -OC2H5, N-[(S)=1-Oxo-3-phenyl-2-(phostphonomethyl)propyl] -β-alanine ethyl ester calcium salt]	2.5
0.08	O=C(O)CCCNC(=O)C(Cc1ccccc1)CP(=O)(O)O (centres unmarked) [S, -H, -CONH-, -(CH2)3-, -OH, 4-[1-oxo-3-phenyl-2-(phosphonomethyl)propyl]amino-butanoic acid]	
0.025	O=C(O)C(O)CNC(=O)C(Cc1ccccc1)CP(=O)(O)O (centres unmarked) [S, -H, -CONH-, -CH2C^***H(OH)-, -OH, 3-[1-Oxo-3-phenyl-2-(phosphonomethyl)propyl]amino-2-hydroxypropanoic Acid]	
0.063	CCOC(=O)c1ccc(NC(=O)C(Cc2ccccc2)CP(=O)(O)O)cc1 (centres unmarked) [S, -H, -CONH-, p-C6H4-, -OC2H5, 4-[1-oxo-3-phenyl-2-(phosphonomethyl)propyl]aminobenzoic acid ethyl ester]	

Compound	IC50 (enkephalinase A) [µM]	Oral ED50, in mice (Male CF1 mice) [mg/kg]
3-[(S) -2- (Diethoxyphosphinyl) methyl -1-oxo-3 -nhenyl- propyl]amino-2-(R,S)-methylpropanoic acid calcium salt [S, -H, -CONH-, -CH2C^**H(CH3)-, -OH]	0.0255	20
N-L(S)-1-Oxo-3-phenyl-2-(phosphonomethyl)propyl]-β-alanine calcium salt [S, -H, -CONH-, -(CH2)2-, -OH]	0.019	3
